The record followed here is ChEMBL document CHEMBL4371004, “A-C Estrogens as Potent and Selective Estrogen Receptor-Beta Agonists (SERBAs) to Enhance Memory Consolidation under Low-Estrogen Conditions” (J Med Chem, 2018).

Data set [1] relates to Mus musculus. Briefly: Memory enhancement effect in C57BL/6 mouse assessed as time spent with moved object at 5 mg/kg, po administered via gavage by object recognition test. In kind it is functional.
In data set [2] the target is T1, Progesterone receptor (Homo sapiens) (UniProt P06401).
T1 sequence (whole entry): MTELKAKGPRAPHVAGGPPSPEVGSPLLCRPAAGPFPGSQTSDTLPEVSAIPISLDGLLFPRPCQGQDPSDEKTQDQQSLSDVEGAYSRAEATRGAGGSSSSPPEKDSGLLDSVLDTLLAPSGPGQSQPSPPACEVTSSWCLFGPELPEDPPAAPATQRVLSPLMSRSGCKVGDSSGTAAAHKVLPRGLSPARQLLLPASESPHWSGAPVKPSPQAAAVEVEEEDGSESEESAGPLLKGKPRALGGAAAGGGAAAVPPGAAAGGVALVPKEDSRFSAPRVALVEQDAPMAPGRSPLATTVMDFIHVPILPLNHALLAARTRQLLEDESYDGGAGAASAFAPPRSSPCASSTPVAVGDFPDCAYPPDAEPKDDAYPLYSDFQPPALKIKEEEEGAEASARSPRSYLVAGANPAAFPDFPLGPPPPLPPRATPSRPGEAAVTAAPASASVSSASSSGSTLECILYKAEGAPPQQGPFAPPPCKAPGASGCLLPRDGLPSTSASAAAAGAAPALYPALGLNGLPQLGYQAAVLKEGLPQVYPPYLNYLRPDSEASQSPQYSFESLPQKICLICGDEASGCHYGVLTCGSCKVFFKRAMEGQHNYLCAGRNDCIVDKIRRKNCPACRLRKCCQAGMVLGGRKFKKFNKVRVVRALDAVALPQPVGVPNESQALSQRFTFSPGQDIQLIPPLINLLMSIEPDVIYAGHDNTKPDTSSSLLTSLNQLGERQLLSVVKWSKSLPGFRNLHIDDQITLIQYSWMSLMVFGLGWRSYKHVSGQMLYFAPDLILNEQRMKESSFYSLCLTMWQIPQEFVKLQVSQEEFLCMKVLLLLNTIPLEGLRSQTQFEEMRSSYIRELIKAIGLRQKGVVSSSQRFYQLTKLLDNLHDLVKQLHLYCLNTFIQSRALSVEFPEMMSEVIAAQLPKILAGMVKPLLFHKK
In words: Agonist activity at GAL4 DNA binding domain fused progesterone receptor ligand binding domain (unknown origin) at 0.25 to 25 uM by FRET-based assay.

In data set [3] the test system is Mus musculus. Briefly: Memory enhancement effect in C57BL/6 mouse assessed as time spent with novel object at 10 pg administered as dorsal hippocampal infusion by novel object recognition test. In kind it is functional.
The subject of data set [4] is Mus musculus. In words: Memory enhancement effect in C57BL/6 mouse assessed as time spent with novel object at 1 ng administered as dorsal hippocampal infusion by novel object recognition test. In kind it is functional.
Data set [5] addresses T2, Mineralocorticoid receptor (Homo sapiens) (UniProt P08235).
T2 sequence (whole entry): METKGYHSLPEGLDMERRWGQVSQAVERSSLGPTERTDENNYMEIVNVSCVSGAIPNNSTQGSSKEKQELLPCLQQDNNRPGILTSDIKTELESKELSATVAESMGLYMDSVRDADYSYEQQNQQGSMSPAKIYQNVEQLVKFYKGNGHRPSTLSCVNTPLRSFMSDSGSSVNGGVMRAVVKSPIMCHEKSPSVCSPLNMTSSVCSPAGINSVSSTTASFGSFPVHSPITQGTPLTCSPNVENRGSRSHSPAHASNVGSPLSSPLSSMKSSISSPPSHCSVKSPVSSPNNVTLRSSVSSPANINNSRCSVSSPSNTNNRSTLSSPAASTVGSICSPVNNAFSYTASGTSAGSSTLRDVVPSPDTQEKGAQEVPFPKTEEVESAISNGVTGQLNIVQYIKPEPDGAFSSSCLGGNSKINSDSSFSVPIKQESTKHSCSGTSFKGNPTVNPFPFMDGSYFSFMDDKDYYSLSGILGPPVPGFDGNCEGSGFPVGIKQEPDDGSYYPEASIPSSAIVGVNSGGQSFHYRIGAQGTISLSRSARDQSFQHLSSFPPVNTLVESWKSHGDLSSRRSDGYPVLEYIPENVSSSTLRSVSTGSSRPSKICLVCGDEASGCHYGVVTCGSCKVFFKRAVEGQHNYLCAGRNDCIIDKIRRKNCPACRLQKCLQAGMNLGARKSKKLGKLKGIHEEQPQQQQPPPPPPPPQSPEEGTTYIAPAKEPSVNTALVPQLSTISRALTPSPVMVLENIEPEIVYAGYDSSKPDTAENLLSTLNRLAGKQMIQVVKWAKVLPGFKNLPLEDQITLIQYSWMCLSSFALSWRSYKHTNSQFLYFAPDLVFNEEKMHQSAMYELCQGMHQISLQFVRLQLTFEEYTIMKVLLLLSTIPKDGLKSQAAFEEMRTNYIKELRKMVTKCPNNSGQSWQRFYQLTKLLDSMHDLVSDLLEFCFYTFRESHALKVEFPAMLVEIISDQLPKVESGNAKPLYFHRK
In words: Agonist activity at GAL4 DNA binding domain fused mineralocorticoid receptor ligand binding domain (unknown origin) at 0.25 to 25 uM by FRET-based assay.

The next data set concerns the target Cytochrome P450 2D6 (Homo sapiens, UniProt P10635). Briefly: Inhibition of human recombinant CYP2D6 up to 100 uM preincubated for 10 mins followed by NADPH addition and measured after 10 to 30 mins by P450-Glo luminescence assay. In kind it is ADME. Conditions: recombinant enzyme.
Data set [6] deals with Mus musculus. In words: Memory enhancement effect in C57BL/6 mouse assessed as time spent with novel object at 100 pg administered as dorsal hippocampal infusion by novel object recognition test. In kind it is functional.
Data set [7] relates to Mus musculus. Briefly: Memory enhancement effect in C57BL/6 mouse assessed as time spent with moved object at 0.5 mg/kg, po administered via gavage by object recognition test. In kind it is functional.
Data set [8] relates to Mus musculus. In words: Memory enhancement effect in C57BL/6 mouse assessed as time spent with moved object at 5 mg/kg, ip by novel object recognition test. In kind it is functional.

Activity calls are given as the source filed them. No cut-off for these calls is given here.

Sequence of Cytochrome P450 2D6 (P10635 whole entry, the tested form may be a part): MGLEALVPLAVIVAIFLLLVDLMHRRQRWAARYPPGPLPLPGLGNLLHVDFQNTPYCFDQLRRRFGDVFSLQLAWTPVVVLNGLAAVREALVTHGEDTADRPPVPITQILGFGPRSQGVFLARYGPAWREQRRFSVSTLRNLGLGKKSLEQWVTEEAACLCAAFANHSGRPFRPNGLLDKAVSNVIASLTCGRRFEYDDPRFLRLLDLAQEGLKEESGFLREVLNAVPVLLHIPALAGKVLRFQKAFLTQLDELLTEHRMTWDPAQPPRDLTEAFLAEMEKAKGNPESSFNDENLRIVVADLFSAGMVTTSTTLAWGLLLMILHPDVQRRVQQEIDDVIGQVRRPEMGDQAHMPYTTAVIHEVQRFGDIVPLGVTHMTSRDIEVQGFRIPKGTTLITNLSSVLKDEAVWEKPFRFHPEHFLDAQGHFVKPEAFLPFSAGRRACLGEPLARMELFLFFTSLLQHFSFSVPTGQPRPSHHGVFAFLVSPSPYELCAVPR

`OC[C@H]1CC[C@H](c2ccc(O)cc2)CC1`: the Time is on record as 5.06 s with Mus musculus [1]; 0.88 s in the data set on Mus musculus [3]; 1.08 s with Mus musculus [4]; 3.16 s in the data set on Mus musculus [6]; 3.65 s in the data set on Mus musculus [7]; 2.78 s in the data set with Mus musculus [8]. Also, the outcome in data set [2] and in [5] was inactive. In addition, the “inhibition (INH)” value on Cytochrome P450 2D6 is on record as “Not Active”.
